Laboratory results from patent US10765674B2, “Prevention of HIV-infection” (Janssen Sciences Ireland Unlimited Company, priority 2005, dated 2020).

Test: Tissue concentrations of TMC278 in beagle dog (biopsy on day 232) after single intramuscular administration
Type: in vivo, beagle dogs
Details: dog No. 16924, day 232 after single IM 2.5 mg/kg, aqueous 30% DMA/50% PEG400 solution; for concentration at 232 day: male, beagle, intramuscular
Description: On day 232 post-dose, a biopsy was performed (dog No. 16924 only) on the iliac lymph node (at the side of injection), on a muscle from the non-injected hind leg and on a muscle at the side of injection after ultrasonographic examination. All tissue samples were protected from light as much as possible and stored on melting ice. All samples were protected from light and stored at ≤−18° C. Finally, an additional blood sample was collected on day 272. This sample was processed and analysed similarly to the other blood samples. The concentration of TMC278 in dog tissue samples was also determined by a qualified research LC-MS/MS method. Tissues samples were homogenized with a 10-fold dilution in Milli-Q water by means of an Ultra-Turrax. The tissue homogenates (200 μl aliquot) were extracted by adding of 600 μl methanol (containing […]). After vortexing and centrifugation, the supernatant was transferred to an HPLC vial and 20 μl aliquots were injected. The LC and the MS conditions were the same as described above. The lower limit of quantification was 10.0 ng/g tissue. Samples were protected from light during the bioanalytical analysis.

[1] = muscle at the side of injection
[2] = muscle from the non-injected hind leg

- concentration at 232 day (iliac lymph node at the side of injection): 72.6 ng/g
- concentration at 232 day [1]: < 10 ng/g
- concentration at 232 day [2]: < 10 ng/g
- tissue concentration [1]: <10.0 ng/g
- tissue concentration [2]: <10.0 ng/g
SMILES: Cc1cc(C=CC#N)cc(C)c1Nc1ccnc(Nc2ccc(C#N)cc2)n1 [TMC278, 4-[[4-[[4-(2-cyanoethenyl)-2,6-dimethylphenyl]amino]-2-pyrimidinyl]-amino]benzonitrile]
